Drawing on patent US11175289B2, “Application of TRPM8 protein, related peptide fragment and their antibodies” (priority 2016, dated 2021), this text covers Affinity and Specificity for 17 substances.

Ends that are not written are not given here. * marks the point of attachment. Biotin = O=C1N[C@H]2[C@H](CS[C@H]2CCCCC(=O)*)N1

The test concerns TRPM8 protein and TRPM8 related peptide fragments. In words: Antibody identification of monoclonal antibodies. To be noted: monoclonal antibody against the named antigen. Type of test: binding, human. The text has this:
Freund's adjuvant is adopted for respectively immunizing the mice.
2. Detection of TRPM8 antibody: utilizing a radioimmunoassay (RIA) method.

Biotin-FKNEDNETLAWEGVMKENYL [T-2]: the Affinity is 10^12 L/mol and the Specificity result is “High”.

Regarding KEKNMESSVCCFKNEDNET (HUMAN) [T-13], the Affinity is on record as 10^12 L/mol and the Specificity result is given as “High”.

Regarding “CSEEM RHRFR QLDTK LNDLKG (CSEEMRHRFRQLDTKLNDLKG; HUMAN) [T-8]”, the Affinity is reported as 10^12 L/mol and the Specificity result was “High”.

Biotin-VSRNLGPKIIMLQ [T-4]: the Affinity was 10^12 L/mol and the Specificity entry is on record as “High”.

Consider VEVEDALTSSAVKEKLVRF (HUMAN) [T-17], for which the Affinity is reported as 10^12 L/mol and the Specificity result is listed as “High”.

For the substance “CFTGNE SKPLCV ELDEH NLPRFPE (CFTGNESKPLCVELDEHNLPRFPE; HUMAN) [T-9]”, the Affinity is 10^12 L/mol and the Specificity result is “High”.

As to “NRRNDTLDSTRTLYSSASRSTDLSYS (HUMAN) [T-16]”, the Affinity is 10^12 L/mol and the Specificity entry is reported as “High”.

Consider Biotin-DGTTYDFAHCTFTGNESKPL [T-3], for which the Affinity is reported as 10^12 L/mol and the Specificity entry is “High”.

FTGNESKPLCVELDEHNLPRFPE (HUMAN) [T-15]: the Affinity was 10^12 L/mol and the Specificity result is reported as “High”.

“CEMDI ELHDV SPITRH (CEMDIELHDVSPITRH; HUMAN) [T-12]”: the Affinity is 10^12 L/mol and the Specificity result is on record as “High”.

Take SEEMRHRFRQLDTKLNDLKG (HUMAN) [T-14]: the Affinity was 10^12 L/mol and the Specificity entry was “High”.

Turning to “VEVED ALTSS AVKEK LVRFC (VEVEDALTSSAVKEKLVRFC; HUMAN) [T-11]”, the Affinity is on record as 10^12 L/mol and the Specificity entry is listed as “High”.

On to Biotin-DEVRQWYVNGVNYFTD [T-5], for which the Affinity is on record as 10^12 L/mol and the Specificity result is “High”.

In the case of “CKEKN MESSV CCFKN EDNET (CKEKNMESSVCCFKNEDNET; HUMAN) [T-7]”, the Affinity was 10^12 L/mol and the Specificity result is “High”.

With EMDIELHDVSPITRH (HUMAN) [T-18], the Affinity is 10^12 L/mol and the Specificity entry is “High”.

Turning to Biotin-LTVIKMEEAGDEIVSNA [T-6], the Affinity is 10^12 L/mol and the Specificity result is on record as “High”.

As to “NRRND TLDST RTLYSS (NRRNDTLDSTRTLYSS; HUMAN) [T-10]”, the Affinity is on record as 10^12 L/mol and the Specificity result is on record as “High”.
